Laboratory results: US10676431B2, “Phenylpyrrolidinone formyl peptide 2 receptor agonists” (BRISTOL-MYERS SQUIBB COMPANY, priority 2018, dated 2020)
pEC50: −log10 of the molar value.

Assays:
human FPR2 = human FPR2 (Homo sapiens (Human), UniProt P25090); experiment: FPR2 cyclic adenosine monophosphate (cAMP) assay; format: cell-based; conditions: CHO cells overexpressing human FPR2; forskolin 5 μM, IBMX 200 μM; inhibition of cAMP production, HTRF; read-out: hFPR2 cAMP2 EC50
Summary of the method: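 CHO cells overexpressing human FPR2 (2,000/well) or FPR1 (4,000/well) incubated 30 min at room temperature with compound (0.020 nM–100 μM, 1% DMSO), IBMX 200 μM and forskolin (5 μM for FPR2, 10 μM for FPR1). Intracellular cAMP read by HTRF against a cAMP standard curve; inhibition of cAMP production fitted to a 4-parameter logistic.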

human FPR1 = human FPR1 (Homo sapiens (Human), UniProt P21462); experiment: FPR1 cyclic adenosine monophosphate (cAMP) assay; format: cell-based; conditions: CHO cells overexpressing human FPR1; forskolin 10 μM, IBMX 200 μM; inhibition of cAMP production, HTRF; read-out: hFPR1 cAMP EC50
Summary of the method: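 CHO cells overexpressing human FPR1 (4,000 per well) were incubated 30 min at room temperature with compound (0.020 nM–100 μM, 1% DMSO), 10 μM forskolin and 200 μM IBMX. Intracellular cAMP was read by HTRF. Inhibition of cAMP production was fitted to a 4-parameter logistic equation.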

Chain of human FPR1 (P21462 whole entry): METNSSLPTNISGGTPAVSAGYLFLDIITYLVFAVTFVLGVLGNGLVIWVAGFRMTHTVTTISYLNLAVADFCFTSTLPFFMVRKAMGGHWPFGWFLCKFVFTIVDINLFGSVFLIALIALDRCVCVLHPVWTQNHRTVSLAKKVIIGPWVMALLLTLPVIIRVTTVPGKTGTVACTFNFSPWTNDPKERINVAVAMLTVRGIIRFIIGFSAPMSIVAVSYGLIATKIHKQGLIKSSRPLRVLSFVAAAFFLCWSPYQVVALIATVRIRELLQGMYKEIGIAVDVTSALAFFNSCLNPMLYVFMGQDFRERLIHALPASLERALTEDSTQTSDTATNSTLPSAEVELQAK
Chain of human FPR2 (P25090 whole entry): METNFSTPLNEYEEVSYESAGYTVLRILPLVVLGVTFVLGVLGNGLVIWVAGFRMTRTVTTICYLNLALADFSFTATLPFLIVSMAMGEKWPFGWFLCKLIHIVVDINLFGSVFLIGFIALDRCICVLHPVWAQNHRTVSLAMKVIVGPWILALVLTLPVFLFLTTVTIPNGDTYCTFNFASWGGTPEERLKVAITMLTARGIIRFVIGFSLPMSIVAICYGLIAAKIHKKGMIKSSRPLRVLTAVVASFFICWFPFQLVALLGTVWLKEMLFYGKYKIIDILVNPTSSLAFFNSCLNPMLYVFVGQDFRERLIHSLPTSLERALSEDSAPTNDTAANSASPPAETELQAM

Compound	pEC50 (human FPR2)	pEC50 (human FPR1)
CC(C)c1cc(-c2ccccc2S(C)(=O)=O)ccc1N1CC[C@@H](NC(=O)Nc2ccc(Cl)cc2F)C1=O [Example 40]	8.34	7.30
CP(C)(=O)c1ccccc1-c1ccc(N2CC[C@@H](NC(=O)Nc3ccc(Cl)cn3)C2=O)c(F)c1F [Example 49]	8.25	5.47
COC[C@@H]1C[C@@H](NC(=O)Nc2ccc(Cl)cc2F)C(=O)N1c1ccc(-c2ccccc2P(C)(C)=O)c(F)c1F [Example 30]	9.66	7.08
CP(C)(=O)c1ccccc1-c1ccc(N2CC[C@@H](NC(=O)Nc3csc(Cl)c3)C2=O)c(F)c1F [Example 133]	6.82	< 5.30
CP(C)(=O)c1ccccc1-c1cc(F)c(N2CC[C@@H](NC(=O)Nc3ccc(C(F)(F)F)cc3F)C2=O)c(F)c1 [Example 76]	8.39	5.68
COc1ccc(NC(=O)N[C@@H]2CCN(c3ccc(-c4ccccc4P(C)(C)=O)c(F)c3F)C2=O)cc1 [Example 65]	8.92	5.59
N#Cc1ccccc1-c1ccc(N2CC[C@@H](NC(=O)Nc3ccc(Cl)cc3)C2=O)c(F)c1F [Example 8]	8.70	7.21

Other lines, results leading:

pEC50 (human FPR2)	pEC50 (human FPR1)	Compound
8.54	6.57	CP(C)(=O)c1ccccc1-c1ccc(N2CC[C@@H](NC(=O)Nc3ccc(C(F)(F)F)cc3F)C2=O)c(Cl)c1F [Example 98]
9.00	6.72	CS(=O)(=O)Nc1ccccc1-c1ccc(N2CC[C@@H](NC(=O)Nc3ccc(C(F)(F)F)cc3)C2=O)c(F)c1F [Example 6]
9.39	9.00	CP(C)(=O)c1ccccc1-c1ccc(N2CC[C@@H](NC(=O)Nc3ccc(Cl)cc3F)C2=O)c(F)c1C(F)(F)F [Example 83]
8.74	7.92	CP(C)(=O)c1ccccc1-c1ccc(N2CC[C@@H](NC(=O)Nc3ccc(C(F)(F)F)cc3F)C2=O)c(F)c1C(F)(F)F [Example 94]
8.62	7.72	CC1C[C@@H](NC(=O)Nc2ccc(Cl)cc2F)C(=O)N1c1ccc(-c2ccccc2S(C)(=O)=O)c(F)c1F (stereo partly drawn) [Example 129]
8.15	6.72	CS(=O)(=O)c1ccccc1-c1ccc(N2CC[C@@H](NC(=O)Nc3ccc(C(F)(F)F)cc3F)C2=O)c(F)c1F [Example 29]
8.28	8.31	CP(C)(=O)c1ccccc1-c1ccc(N2CC[C@@H](NC(=O)Nc3ccc(C(F)(F)F)cc3F)C2=O)c(F)c1OC(F)(F)F [Example 88]
8.77	6.24	CC1(C)CN(c2ccc(-c3ccccc3P(C)(C)=O)c(F)c2F)C(=O)[C@@H]1NC(=O)Nc1ccc(C(F)(F)F)cc1F [Example 102]
